Measured values as given in patent US20140288044A1, “COMPOSITIONS AND THERAPEUTIC USES OF IKK-RELATED KINASE EPSILON AND TANKBINDING KINASE 1 INHIBITORS” (Alzheimer's Institute of America, Inc., priority 2011, published 2014).

System: IKKε-mediated phosphorylation of IRF3
Experiment: ELISA for in-situ phosphorylation of IRF3 (phospho-Ser396) in HEK293T cells cotransfected with IRF3 and IKKε
Format: cell-based
Conditions: Homo sapiens, HEK-293T, 20 h, HEK293T cells, 20 hours; range given from about 1 μM to about 250 nM; read-out: IC50, in-situ IKKε-mediated phosphorylation of IRF3
Protocol: HEK293T cells were cotransfected in a 10-cm dish with IRF3 and IKKε expression plasmids using Lipofectamine 2000 (Invitrogen, Carlsbad, Calif.). The following day, cells were replated at 20,000 per well in 96-well plates and treated with test compounds (compounds according to Formulae I and/or II) for 20 hours. Cell lysates were prepared and analyzed using an ELISA for phospho-Ser396 (anti-IRF3 capture antibody, Santa Cruz Biotechnology, Inc., Santa Cruz, Calif.; anti-p-Ser396 IRF3 detection antibody, Cell Signaling, Danvers, Mass.). pIRF3 levels in compound treated cells were normalized to DMSO treated cells (no compound). Cell viability was assayed in a parallel set of plates to monitor cytotoxic effects of the test compounds (CellTiter-Glo, Promega, Inc., Madison, Wis.). TBK1 activity was tested by Western blotting using a phospho-specific IRF7 antibody. Similar to above, HEK293T cells were transfected with IRF7 and TBK1 expression plasmids. Cells were seeded in 12-well plates at 150,000 per well and treated overnight with test compounds. Protein lysates were prepared and processed for Western blotting followed by detection using a phosphor-Ser477/Ser479 IRF7 antibody (BD Biosciences, San Jose, Calif.)

| Structure (SMILES) | IC50 [nM] |
| --- | --- |
| COCCNc1cc(Nc2nccc(-c3ccc(NC(=O)C4CC4)c(C#N)c3)n2)ccn1 [Example Compound 242, N-{2-Cyano-4-[2-({2-[(2-methoxyethyl)amino]pyridin-4-yl}amino)pyrimidin-4-yl]phenyl}cyclopropanecarboxamide] | 250 to 1000 |
| CN1CCN(c2ccc(Nc3nccc(-c4ccc(OC5CCOCC5)c(C#N)c4)n3)nn2)CC1 [Example Compound 85, 5-(2-{[6-(4-Methylpiperazin-1-yl)pyridazin-3-yl]amino}pyrimidin-4-yl)-2-(tetrahydro-2H-pyran-4-yloxy)benzonitrile] | 250 to 1000 |

Next, values leading:

| IC50 [nM] | Structure (SMILES) |
| --- | --- |
| 250 to 1000 | COCCNCc1ccc(Nc2nccc(-c3ccc(OC4CCOCC4)c(C#N)c3)n2)cn1 [Example Compound 50, 5-{2-[(6-{[(2-Methoxyethyl)amino]methyl}pyridin-3-yl)amino]pyrimidin-4-yl}-2-(tetrahydro-2H-pyran-4-yloxy)benzonitrile] |
| 250 to 1000 | COc1cc(-c2ccnc(Nc3ccc(CN4CCC4)nc3)n2)cc(C#N)c1OC1CCOCC1 [Example Compound 115, 5-(2-{[6-(Azetidin-1-ylmethyl)pyridin-3-yl]amino}pyrimidin-4-yl)-3-methoxy-2-(tetrahydro-2H-pyran-4-yloxy)benzonitrile] |

Same assay, conditions: Homo sapiens, HEK-293T, 20 h, HEK293T cells, 20 hours; read-out: IC50, in-situ IKKε-mediated phosphorylation of IRF3

| Structure (SMILES) | IC50 [nM] |
| --- | --- |
| CN1CCN(C(=O)c2ncc(Nc3nccc(-c4ccc(OC5CCOCC5)c(C#N)c4)n3)n2C)CC1 [Example Compound 103, 5-[2-({1-Methyl-2-[(4-methylpiperazin-1-yl)carbonyl]-1H-imidazol-5-yl}amino)pyrimidin-4-yl]-2-(tetrahydro-2H-pyran-4-yloxy)benzonitrile] | < 100 |
| CN(C)c1ccc(Nc2nccc(-c3ccc(O[C@@H]4CCN(C(=O)CO)C4)c(C#N)c3)n2)cn1 [Example Compound 124, 5-(2-{[6-(Dimethylamino)pyridin-3-yl]amino}pyrimidin-4-yl)-2-{[1-(hydroxyacetyl)pyrrolidin-3-yl]oxy}benzonitrile] | 100 to 250 |
| COC1CN(C(=O)Cc2csc(Nc3nccc(-c4ccc(OC5CCOCC5)c(C#N)c4)n3)n2)C1 [Example Compound 105, 5-[2-({4-[2-(3-Methoxyazetidin-1-yl)-2-oxoethyl]-1,3-thiazol-2-yl}amino)pyrimidin-4-yl]-2-(tetrahydro-2H-pyran-4-yloxy)benzonitrile] | 1000 to 5000 |
| Cc1ccc(Nc2nccc(-c3ccc(NC(=O)C(C)C)c(C#N)c3)n2)cn1 [Example Compound 136, N-(2-Cyano-4-{2-[(6-methylpyridin-3-yl)amino]pyrimidin-4-yl}phenyl)-2-methylpropanamide] | 1000 to 5000 |
| Cc1ccc(Nc2nccc(-c3ccc(OC4CCN(C(=O)[C@@H](C)O)CC4)c(C#N)c3)n2)cn1 [Example Compound 129, 2-({1-[(2R)-2-Hydroxypropanoyl]piperidin-4-yl}oxy)-5-{2-[(6-methylpyridin-3-yl)amino]pyrimidin-4-yl}benzonitrile] | 1000 to 5000 |
| C[C@H](O)C(=O)N1CCC(Oc2ccc(-c3ccnc(Nc4ccc(N5CC(O)C5)nc4)n3)cc2C#N)CC1 [Example Compound 253, 5-(2-{[6-(3-Hydroxyazetidin-1-yl)pyridin-3-yl]amino}pyrimidin-4-yl)-2-({1-[(2S)-2-hydroxypropanoyl]piperidin-4-yl}oxy)benzonitrile] | 1000 to 5000 |

Continued, values first:

| IC50 [nM] | Structure (SMILES) |
| --- | --- |
| 100 to 250 | CN(C)Cc1cncc(Nc2nccc(-c3ccc(OC4CCOCC4)c(C#N)c3)n2)c1 [Example Compound 201, 5-[2-({5-[(Dimethylamino)methyl]pyridin-3-yl}amino)pyrimidin-4-yl]-2-(tetrahydro-2H-pyran-4-yloxy)benzonitrile] |
| 100 to 250 | COC1CN(C(=O)c2ccc(Nc3nccc(-c4ccc(OC5CCOCC5)c(C#N)c4)n3)cn2)C1 [Example Compound 31, 5-[2-({6-[(3-Methoxyazetidin-1-yl)carbonyl]pyridin-3-yl}amino)pyrimidin-4-yl]-2-(tetrahydro-2H-pyran-4-yloxy)benzonitrile] |
| 100 to 250 | CCN(CC)c1ccc(Nc2nccc(-c3ccc(OC4CCOCC4)c(C#N)c3)n2)cn1 [Example Compound 153, 5-(2-{[6-(Diethylamino)pyridin-3-yl]amino}pyrimidin-4-yl)-2-(tetrahydro-2H-pyran-4-yloxy)benzonitrile] |
| 1000 to 5000 | Cn1cc(Nc2nccc(-c3ccc(OC4CCOCC4)c(C#N)c3)n2)cn1 [Example Compound 97, 5-{2-[(1-Methyl-1H-pyrazol-4-yl)amino]pyrimidin-4-yl}-2-(tetrahydro-2H-pyran-4-yloxy)benzonitrile] |
| 100 to 250 | COC1CN(C(C)c2ccc(Nc3nccc(-c4ccc(OC5CCOCC5)c(C#N)c4)n3)cn2)C1 (stereo not drawn) [Example Compound 234, 5-[2-({6-[1-(3-Methoxyazetidin-1-yl)ethyl]pyridin-3-yl}amino)pyrimidin-4-yl]-2-(tetrahydro-2H-pyran-4-yloxy)benzonitrile] |
| 1000 to 5000 | N#Cc1cc(-c2ccnc(Nc3cncc(CN4CCN(CCO)CC4)c3)n2)ccc1OC1CCOCC1 [Example Compound 186, 5-{2-[(5-{[4-(2-Hydroxyethyl)piperazin-1-yl]methyl}pyridin-3-yl)amino]pyrimidin-4-yl}-2-(tetrahydro-2H-pyran-4-yloxy)benzonitrile] |
| 1000 to 5000 | N#Cc1cc(-c2ccnc(Nc3cncc(C(=O)N4CCOCC4)c3)n2)ccc1OC1CCOCC1 [Example Compound 172, 5-(2-{[5-(Morpholin-4-ylcarbonyl)pyridin-3-yl]amino}pyrimidin-4-yl)-2-(tetrahydro-2H-pyran-4-yloxy)benzonitrile] |
| 100 to 250 | COc1cc(-c2ccnc(Nc3ccc(CN4CC(OC)C4)nc3)n2)cc(C#N)c1OC1CCOCC1 [Example Compound 116, 3-Methoxy-5-[2-({6-[(3-methoxyazetidin-1-yl)methyl]pyridin-3-yl}amino)pyrimidin-4-yl]-2-(tetrahydro-2H-pyran-4-yloxy)benzonitrile] |

Target: T1, IKKε (Homo sapiens, UniProt Q14164)
T1 construct: His-tag (in-house Sf9 preparation) or GST-tag (purchased Invitrogen preparation); these are alternatives, not both on one protein; host or cells: Sf9 cells
T1 sequence (Q14164 1-716): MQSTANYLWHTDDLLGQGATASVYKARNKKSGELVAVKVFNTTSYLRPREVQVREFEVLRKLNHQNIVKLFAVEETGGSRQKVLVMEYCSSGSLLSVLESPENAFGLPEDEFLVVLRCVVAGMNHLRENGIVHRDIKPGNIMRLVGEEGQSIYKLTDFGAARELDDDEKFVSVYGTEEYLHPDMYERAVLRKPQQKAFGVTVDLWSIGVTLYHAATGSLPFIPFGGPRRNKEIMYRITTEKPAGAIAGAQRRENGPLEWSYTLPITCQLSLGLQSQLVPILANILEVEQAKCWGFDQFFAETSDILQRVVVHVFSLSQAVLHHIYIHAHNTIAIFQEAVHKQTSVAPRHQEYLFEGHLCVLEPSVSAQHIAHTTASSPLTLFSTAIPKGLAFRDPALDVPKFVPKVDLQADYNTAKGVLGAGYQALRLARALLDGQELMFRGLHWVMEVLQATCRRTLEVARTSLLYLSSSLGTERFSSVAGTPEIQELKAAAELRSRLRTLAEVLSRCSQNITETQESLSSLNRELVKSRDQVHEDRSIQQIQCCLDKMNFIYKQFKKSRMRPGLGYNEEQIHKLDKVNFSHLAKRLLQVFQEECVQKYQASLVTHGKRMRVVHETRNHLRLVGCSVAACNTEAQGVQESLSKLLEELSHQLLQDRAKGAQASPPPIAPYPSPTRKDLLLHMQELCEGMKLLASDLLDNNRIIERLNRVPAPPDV
Experiment: In-vitro IKKε kinase assay (radiolabelled ATP, filterplate)
Format: biochemical
Conditions: "sensitized" assay; read-out: IC50, inhibition of the kinase activity of IKKε
Protocol: IKKε enzyme was produced as a His-tag fusion in Sf9 cells or purchased as a GST-tag fusion (Invitrogen, Carlsbad, Calif.). TBK1 enzyme was produced as a His-tag fusion in Sf9 cells. Kinase reactions were carried out in reaction buffer using myelin basic protein (Millipore, Ballerica, Mass.), casein or dephosphorylated casein (Sigma, St. Louis, Mo.) as substrate at an ATP concentration equal to twice the Km,ATP value for each enzyme, corresponding to 32 μM ATP for IKKε and 60 μM ATP for TBK1. Radiolabelled [γ^33]ATP (PerkinElmer, Waltham, Mass.) in the amount of […] (IKKe, “normal”) or 0.7 μCi (IKKε, “sensitized”) or 1.25 μCi (TBK1) was added to each assay. Final enzyme concentrations were 0.1 or 0.015 μg/ml (IKKε) and 0.1 or 0.02 μg/ml (TBK1) for the “normal” and “sensitized” assay, respectively, and “sensitized” assays were conducted using only dephosphorylated casein as substrate. Test compounds (or DMSO solvent as a control) were added prior to initiation of the reactions. Reactions were terminated after 30-45 minutes by adding 3% phosphoric acid. Terminated reactions were transferred to P-81 cellulose phosphate filterplates (Whatman, Inc., Piscataway, N.J.) and washed with 1% phosphoric acid on a vacuum apparatus. After air drying, scintillant (PerkinElmer, Waltham, Mass.) was added and the plates were read on a PerkinElmer TopCount NXT instrument. Counts were normalized to DMSO controls after background subtraction.

| Structure (SMILES) | IC50 [nM] |
| --- | --- |
| N#Cc1cc(-c2ccnc(Nc3ccnc(CN4CC(O)C4)c3)n2)ccc1OC1CCOCC1 [Example Compound 218, 5-[2-({2-[(3-Hydroxyazetidin-1-yl)methyl]pyridin-4-yl}amino)pyrimidin-4-yl]-2-(tetrahydro-2H-pyran-4-yloxy)benzonitrile] | < 5 |
| CN(Cc1ccc(Nc2nccc(-c3ccc(OC4CCOCC4)c(C#N)c3)n2)cn1)C(=O)C1(O)CC1 [Example Compound 197, N-{[5-({4-[3-Cyano-4-(tetrahydro-2H-pyran-4-yloxy)phenyl]pyrimidin-2-yl}amino)pyridin-2-yl]methyl}-1-hydroxy-N-methylcyclopropanecarboxamide] | < 5 |
| CN(Cc1ccc(Nc2nccc(-c3ccc(OC4CCOCC4)c(C#N)c3)n2)cn1)C(=O)C1(N)CC1 [Example Compound 196, 1-Amino-N-{[5-({4-[3-cyano-4-(tetrahydro-2H-pyran-4-yloxy)phenyl]pyrimidin-2-yl}amino)pyridin-2-yl]methyl}-N-methylcyclopropanecarboxamide] | < 5 |
